Source: ChEMBL document CHEMBL5303573, “Mapping human microbiome drug metabolism by gut bacteria and their genes” (Nature, 2019)

Tests used:
[1] = The drug is tested on Bacteroides dorei strain: DSM17855 for biotransformation. The drug concentrations were measured before and after a 12-h incubation by liquid-chromatography-coupled mass spectrometry (LC–MS); details: phocaeicola dorei, 2 µM
[2] = The drug is tested on Bacteroides caccae strain: ATCC43185 for biotransformation. The drug concentrations were measured before and after a 12-h incubation by liquid-chromatography-coupled mass spectrometry (LC–MS); details: 2 µM
[3] = The drug is tested on Bifidobacterium ruminantium strain: fecal isolate for biotransformation. The drug concentrations were measured before and after a 12-h incubation by liquid-chromatography-coupled mass spectrometry (LC–MS); details: 2 µM
[4] = The drug is tested on Enterococcus faecalis strain: V583 for biotransformation. The drug concentrations were measured before and after a 12-h incubation by liquid-chromatography-coupled mass spectrometry (LC–MS); details: 2 µM
[5] = The drug is tested on Anaerotruncus colihominis strain: DSM17241 for biotransformation. The drug concentrations were measured before and after a 12-h incubation by liquid-chromatography-coupled mass spectrometry (LC–MS); details: 2 µM
[6] = The drug is tested on Clostridium hathewayi strain: DSM13479 for biotransformation. The drug concentrations were measured before and after a 12-h incubation by liquid-chromatography-coupled mass spectrometry (LC–MS); details: hungatella hathewayi, 2 µM
[7] = The drug is tested on Ruminococcus lactaris strain: ATCC29176 for biotransformation. The drug concentrations were measured before and after a 12-h incubation by liquid-chromatography-coupled mass spectrometry (LC–MS); details: 2 µM
[8] = bacteroides thetaiotaomicron, 12 h, 2 µM
Description: The drug is tested on Bacteroides thetaiotaomicron strain: 3731 for biotransformation. The drug concentrations were measured before and after a 12-h incubation by liquid-chromatography-coupled mass spectrometry (LC–MS)

| SMILES | Bacterial Biotransformation [1] | Bacterial Biotransformation [2] | Bacterial Biotransformation [3] | Bacterial Biotransformation [4] | Bacterial Biotransformation [5] | Bacterial Biotransformation [6] | Bacterial Biotransformation [7] | Bacterial Biotransformation [8] |
| --- | --- | --- | --- | --- | --- | --- | --- | --- |
| CCCC(=O)Nc1ccc(OCC(O)CNC(C)C)c(C(C)=O)c1 (stereo not given) [ACEBUTOLOL] | Compound NOT metabolized | Compound NOT metabolized | Compound NOT metabolized | Compound NOT metabolized | Compound NOT metabolized | Compound NOT metabolized | Compound NOT metabolized | Compound NOT metabolized |
| CC(C)NCC(O)COc1ccc(CCOCC2CC2)cc1 (stereo not given) [BETAXOLOL] | – | Compound NOT metabolized | – | Compound NOT metabolized | Compound NOT metabolized | Compound NOT metabolized | Compound NOT metabolized | Compound NOT metabolized |
| CC(NC(C)(C)C)C(=O)c1cccc(Cl)c1 (stereo not given) [BUPROPION] | Compound NOT metabolized | Compound NOT metabolized | Compound metabolized | Compound NOT metabolized | Compound NOT metabolized | Compound NOT metabolized | Compound NOT metabolized | Compound NOT metabolized |
| COc1ccccc1OCCNCC(O)COc1cccc2[nH]c3ccccc3c12 (stereo not given) [CARVEDILOL] | Compound metabolized | Compound metabolized | Compound metabolized | Compound NOT metabolized | Compound metabolized | Compound metabolized | Compound metabolized | Compound metabolized |
| O=C(O)COCCN1CCN(C(c2ccccc2)c2ccc(Cl)cc2)CC1 (stereo not given) [CETIRIZINE] | Compound metabolized | Compound NOT metabolized | Compound NOT metabolized | Compound NOT metabolized | Compound NOT metabolized | Compound NOT metabolized | Compound NOT metabolized | Compound metabolized |
| CN/C(=N/CCSCc1nc[nH]c1C)NC#N [CIMETIDINE] | Compound metabolized | – | Compound NOT metabolized | Compound NOT metabolized | Compound NOT metabolized | Compound NOT metabolized | Compound NOT metabolized | Compound metabolized |
| Clc1cccc(Cl)c1N=C1NCCN1 [CLONIDINE] | Compound metabolized | Compound NOT metabolized | Compound NOT metabolized | Compound NOT metabolized | Compound NOT metabolized | Compound NOT metabolized | Compound NOT metabolized | Compound metabolized |
| CN1CCN(C2=Nc3cc(Cl)ccc3Nc3ccccc32)CC1 [CLOZAPINE] | Compound NOT metabolized | Compound NOT metabolized | Compound NOT metabolized | – | – | Compound NOT metabolized | Compound NOT metabolized | Compound NOT metabolized |
| CN(C)CCC=C1c2ccccc2C=Cc2ccccc21 [CYCLOBENZAPRINE] | – | Compound NOT metabolized | Compound NOT metabolized | Compound NOT metabolized | Compound NOT metabolized | Compound NOT metabolized | Compound NOT metabolized | – |
| c1ccc([C@H]2CN3CCSC3=N2)cc1 [LEVAMISOLE] | Compound metabolized | Compound metabolized | Compound NOT metabolized | Compound NOT metabolized | Compound metabolized | Compound NOT metabolized | Compound NOT metabolized | Compound NOT metabolized |
| CC[C@H](C)C(=O)O[C@H]1CCC=C2C=C[C@H](C)[C@H](CC[C@@H]3C[C@@H](O)CC(=O)O3)[C@H]21 [MEVASTATIN] | Compound metabolized | Compound metabolized | Compound metabolized | Compound metabolized | Compound metabolized | – | Compound metabolized | Compound metabolized |
| COc1c(C)c2c(c(O)c1C/C=C(\C)CCC(=O)OCCN1CCOCC1)C(=O)OC2 [MYCOPHENOLATE MOFETIL] | Compound metabolized | Compound metabolized | Compound metabolized | Compound metabolized | Compound metabolized | – | Compound metabolized | Compound metabolized |
| CNC(=C[N+](=O)[O-])NCCSCc1csc(CN(C)C)n1 [NIZATIDINE] | Compound metabolized | Compound NOT metabolized | Compound metabolized | Compound metabolized | Compound metabolized | – | Compound metabolized | Compound NOT metabolized |
| COc1ccc2[nH]c([S+]([O-])Cc3ncc(C)c(OC)c3C)nc2c1 (stereo not given) [OMEPRAZOLE] | Compound metabolized | Compound metabolized | Compound metabolized | Compound metabolized | Compound metabolized | – | Compound metabolized | Compound metabolized |
| CC(C(=O)O)c1ccc2c(c1)Cc1cccnc1O2 (stereo not given) [PRANOPROFEN] | Compound metabolized | Compound metabolized | Compound metabolized | Compound NOT metabolized | Compound metabolized | – | Compound NOT metabolized | Compound metabolized |
| CCOc1cc(CC(=O)N[C@@H](CC(C)C)c2ccccc2N2CCCCC2)ccc1C(=O)O [REPAGLINIDE] | Compound metabolized | – | Compound NOT metabolized | Compound NOT metabolized | Compound NOT metabolized | Compound NOT metabolized | Compound NOT metabolized | Compound NOT metabolized |
